Data published in US10294228B2, “Breathing control modulating compounds, and methods of making and using same” (NEURAD LTD., priority 2015, dated 2019).
Structures can show the parent of a compound that is named as a salt.

System: anesthetized rats
Assay: Anesthetized rat spirometry screening assay (ventilatory activity, minute volume)
Format: in vivo
Details: increase in minute volume (VE); for change in vivo at 0.3 mg/kg: 0.3 mg/kg IV bolus, read-out: VE % Inc @ 0.3 mg/kg IV; for change in vivo at 3 mg/kg: 3.0 mg/kg IV bolus, read-out: VE % Inc @ 3.0 mg/kg IV
Procedure: Anesthetized rats provide a quick method of screening compounds for respiratory and cardiovascular activity.
Rats were initially anesthetized with 3% isoflurane (inhaled) and femoral artery and vein cannulas were surgically inserted. Once cannulated, the rats were transitioned to urethane anesthesia (1.5 g/kg; i.v.) and a tracheal cut-down was performed. After placing the tracheal cannula, it was connected to a pneumotachometer to record respiratory airflow from which respiratory rate (RR), tidal volume (VT), and their product minute volume (MV, also termed VE) were derived. After the surgical preparation was complete, animals were allowed to stabilize for 30 minutes while respiratory rate, tidal volume, minute volume, blood pressure and heart rate were recorded continuously. Arterial blood gases (ABG) were obtained from arterial blood collected from the femoral artery. ABG measurements were taken before and 6 minutes after vehicle and each dose of compound administered. Compounds being screened were administered via bolus injections through the venous cannula followed by a saline flush (total time of administration is approximately 30 seconds), and the animal was monitored for at least 6 minutes for changes in cardiovascular efforts. Compounds were prepared in formulations identified to ensure optimal solubility. As such, vehicle controls were matched for the formulation of each compound tested. Dosing of the compounds being screened was conducted at 0.1 and/or 0.3 mg/kg and/or 3 mg/kg The next dose was not administered until all cardiovascular and respiratory measures had returned to baseline levels. The positive control compounds used were N-[4,6-di-(n-propylamino)-[1,3,5]triazin-2-yl]-N,O-dimethyl-hydroxylamine or N-[2,6-di-(n-propylamino)-[1,3]pyrimidin-4-yl]-N,O-dimethyl-hydroxylamine (both administered at the end of each screening experiment (0.3 mg/kg dose) to validate the experiment and also to serve as a measure with which the compound being screened could be compared.
Data were analyzed by collecting cardiovascular and respiratory data in 30 second averages (BINs). Data were plotted 2 minutes before challenge and then 6 minutes after challenge.

Row | SMILES | change in vivo at 0.3 mg/kg [%] | change in vivo at 3 mg/kg [%]
1 | CC[C@@H](C)Nc1nc(NC)c2nc(NCC(C)(C)O)nc(NC)c2n1 [Compound 99, 1-[6-((R)-sec-Butylamino)-4,8-bis-methylamino-pyrimido[5,4-d]-pyrimidin-2-ylamino]-2-methyl-propan-2-ol] | 25 | 61
2 | CCCNc1nc(NCC)nc2c(NCCO)nc(NCC)nc12 [Compound 27a, 2-(2,6-Bis-ethylamino-8-propylamino-pyrimido[5,4-d]pyrimidin-4-ylamino)-ethanol Hydrochloride] | 110 | 
3 | CC[C@@H](C)Nc1nc(NC)c2nc(NC[C@@H](C)O)nc(NC)c2n1 [Compound 100, (R)-1-[6-((R)-sec-Butylamino)-4,8-bis-methylamino-pyrimido[5,4-d]pyrimidin-2-ylamino]-propan-2-ol] | 33 | 139
4 | CCCNc1nc(NC)nc2c(NCC3(O)CCC3)nc(NC)nc12 [Compound 72a, 1-[(2,6-Bis-methylamino-8-propylamino-pyrimido[5,4-d]pyrimidin-4-ylamino)-methyl]-cyclobutanol Hydrochloride] | 132 | 150
5 | CNc1nc(NCC(C)(C)O)nc2c(NC)nc(NCC(F)F)nc12 [Compound 107, 1-[6-(2,2-Difluoro-ethylamino)-4,8-bis-methylamino-pyrimido[5,4-d]pyrimidin-2-ylamino]-2-methyl-propan-2-ol] | 14 | 95
6 | CCCNc1nc(NC)c2nc(NC[C@H](C)O)nc(NC)c2n1 [Compound 113, (S)-1-(4,8-Bis-methylamino-6-propylamino-pyrimido[5,4-d]pyrimidin-2-ylamino)-propan-2-ol] | 111 | 190
7 | CNc1nc(NCC(F)(F)F)c2nc(NC)nc(NCCO)c2n1 [Compound 62a, 2-[2,6-Bis-methylamino-8-(2,2,2-trifluoro-ethylamino)-pyrimido[5,4-d]pyrimidin-4-ylamino]-ethanol Hydrochloride] | 40 | 
8 | C=C(C)CNc1nc(NC)c2nc(NC[C@@H](C)O)nc(NC)c2n1 [Compound 158, (R)-1-[6-(2-Methyl-allylamino)-4,8-bis-methylamino-pyrimido[5,4-d]-pyrimidin-2-ylamino]-propan-2-ol] | 68 | 120
9 | CCNc1nc(NCC(C)(C)O)c2nc(NCC)nc(NCC)c2n1 [Compound 49a, 2-Methyl-1-(2,6,8-tris-ethylamino-pyrimido[5,4-d]-pyrimidin-4-ylamino)-propan-2-ol Hydrochloride] | 127 | 183
10 | CCCNc1nc(NC)nc2c(NCC(O)(CC)CC)nc(NC)nc12 [Compound 74a, 3-[(2,6-Bis-methylamino-8-propylamino-pyrimido[5,4-d]pyrimidin-4-ylamino)-methyl]-pentan-3-ol Hydrochloride] | 153 | 208
11 | CCNc1nc(NC)c2nc(NCC(O)CC)nc(NC)c2n1 (centres unmarked) [Compound 147, 1-(6-Ethylamino-4,8-bis-methylamino-pyrimido[5,4-d]pyrimidin-2-ylamino)-butan-2-ol] | 31 | 147
12 | CCNc1nc(NCC)c2nc(NC[C@@H](C)O)nc(NCC)c2n1 [Compound 186, (R)-1-(4,6,8-Tris-ethylamino-pyrimido[5,4-d]pyrimidin-2-ylamino)-propan-2-ol] | 37 | 90
13 | CNc1nc(NCC(F)F)c2nc(NC)nc(NCCO)c2n1 [Compound 60a, 2-[8-(2,2-Difluoro-ethylamino)-2,6-bis-methylamino-pyrimido[5,4-d]-pyrimidin-4-ylamino]-ethanol Hydrochloride] | 15 | 119
14 | CCCNc1nc(NC)nc2c(NCC(C)O)nc(NC)nc12 (centres unmarked) [Compound 10a, 1-(2,6-Bis-methylamino-8-propylamino-pyrimido[5,4-d]-pyrimidin-4-ylamino)-propan-2-ol hydrochloride] | 93 | 
15 | CNc1nc(NCCO)c2nc(NC)nc(NC)c2n1 [Compound 52a, 2-(2,6,8-Tris-methylamino-pyrimido[5,4-d]pyrimidin-4-ylamino)-ethanol Hydrochloride] | 26 | 
16 | CCCNc1nc(NC)nc2c(NC(C)(C)CO)nc(NC)nc12 [Compound 16a, 2-(2,6-Bis-methylamino-8-propylamino-pyrimido[5,4-d]-pyrimidin-4-ylamino)-2-methyl-propan-1-ol hydrochloride] | 80 | 
17 | CCCNc1nc(NC)nc2c(NCC(O)C(F)(F)F)nc(NC)nc12 (centres unmarked) [Compound 22a, 3-(2,6-Bis-methylamino-8-propylamino-pyrimido[5,4-d]pyrimidin-4-ylamino)-1,1,1-trifluoro-propan-2-ol Hydrochloride] | 102 | 
18 | CCCNc1nc(NCC)c2nc(NC[C@H](C)O)nc(NCC)c2n1 [Compound 166, (S)-1-(4,8-Bis-ethylamino-6-propylamino-pyrimido[5,4-d]-pyrimidin-2-ylamino)-propan-2-ol] | 88 | 91
19 | CCCNc1nc(NC)nc2c(N[C@@H]3CCCC[C@H]3O)nc(NC)nc12 [Compound 85, (1R,2R)-2-(2,6-Bis-methylamino-8-propylamino-pyrimido[5,4-d]pyrimidin-4-ylamino)-cyclohexanol] | 69 | 83
20 | CCCNc1nc(NC)nc2c(N(C)CC(C)O)nc(NC)nc12 (centres unmarked) [Compound 73a, 1-[(2,6-Bis-methylamino-8-propylamino-pyrimido[5,4-d]-pyrimidin-4-yl)-methyl-amino]-propan-2-ol Hydrochloride] | 16 | 79
21 | CCCNc1nc(NC)nc2c(NCCCO)nc(NC)nc12 [Compound 8a, 3-(2,6-Bis-methylamino-8-propylamino-pyrimido[5,4-d]pyrimidin-4-ylamino)-propan-1-ol hydrochloride] | 31 | 
22 | C=C(C)CNc1nc(NCC)c2nc(NC[C@@H](C)O)nc(NCC)c2n1 [Compound 174, (R)-1-[4,8-Bis-ethylamino-6-(2-methyl-allylamino)-pyrimido[5,4-d]-pyrimidin-2-ylamino]-propan-2-ol] | 72 | 114
23 | CCCNc1nc(NCC(F)(F)F)nc2c(NCCO)nc(NCC(F)(F)F)nc12 [Compound 28a, 2-[8-propylamino-2,6-bis-(2,2,2-trifluoroethylamino)-pyrimido[5,4-d]pyrimidin-4-ylamino]ethanol hydrochloride] | 16 | 
24 | CNc1nc(NCCOC)c2nc(NC)nc(NCCO)c2n1 [Compound 56a, 2-[8-(2-Methoxy-ethylamino)-2,6-bis-methylamino-pyrimido[5,4-d]pyrimidin-4-ylamino]-ethanol Hydrochloride] | 2 | 
25 | CNc1nc(NCC(C)(C)O)c2nc(NC)nc(NCC(F)F)c2n1 [Compound 36a, 1-[8-(2,2-Difluoro-ethylamino)-2,6-bis-methylamino-pyrimido[5,4-d]pyrimidin-4-ylamino]-2-methyl-propan-2-ol Hydrochloride] | 34 | 
26 | CCCNc1nc(NC)nc2c(N[C@H]3c4ccccc4C[C@@H]3O)nc(NC)nc12 [Compound 78, (1S,2S)-1-(2,6-Bis-methylamino-8-propylamino-pyrimido[5,4-d]-pyrimidin-4-ylamino)-indan-2-ol] | 173 | 180
27 | CNc1nc(NC[C@@H](C)O)nc2c(NC)nc(NCC3CC3)nc12 [Compound 144, (R)-1-[6-(Cyclopropylmethyl-amino)-4,8-bis-methylamino-pyrimido[5,4-d]pyrimidin-2-ylamino]-propan-2-ol] | 14 | 98
28 | CCCNc1nc(NC)c2nc(N[C@H]3CCCC[C@@H]3O)nc(NC)c2n1 [Compound 133, (1S,2S)-2-(4,8-Bis-methylamino-6-propylamino-pyrimido[5,4-d]pyrimidin-2-ylamino)-cyclohexanol] | 35 | 111
29 | CCCNc1nc(NC)nc2c(N[C@H]3CCCC[C@@H]3O)nc(NC)nc12 [Compound 83, (1S,2S)-2-(2,6-Bis-methylamino-8-propylamino-pyrimido[5,4-d]pyrimidin-4-ylamino)-cyclohexanol] | 176 | 153
30 | CCCNc1nc(NCC)c2nc(NC[C@@H](C)O)nc(NCC)c2n1 [Compound 169, (R)-1-(4,8-Bis-ethylamino-6-propylamino-pyrimido[5,4-d]-pyrimidin-2-ylamino)-propan-2-ol] | 113 | 142
